Experimental data: US20140135499A1, “METHODS FOR THE TOTAL CHEMICAL […] OF ENANTIOMERICALLY-PURE 7-(2'-[…]) ETHYL CAMPTOTHECIN” (BioNumerik Pharmaceuticals, Inc., priority 2012, published 2014)
Where two headings read alike, the source gives them in different places.

Columns and labels:
[1] = tested on: angiogenesis (neovascularization); details: mice cornea model; dose levels of 210 mg/kg; cited from earlier work
[2] = tested on: panel of over twenty (20) human cancer cell lines; experiment: In vitro studies on a panel of human cancer cell lines; assay type: cell-based
Description: In contrast, Karenitecin is a highly lipophilic camptothecin derivative characterized by substantial lactone stability and long plasma half-life. […] The free drug concentration in blood plasma is generally considered to be the pharmacologically active form in clinical pharmacology.

[3] = tested on: Wild type human ovarian cancer cells (A2780/WT); experiment: SRB cytotoxicity assay, inhibition of cell growth, A2780/WT; assay type: cell-based; details: 2 hour treatment, SRB assay at 5 days
Procedure: (§1) Wild type human ovarian cancer cells (A2780/WT) and doxorubicin resistant human ovarian cancer cells (A2780/DX5) were cultured in RPMI 1640 medium supplemented with 10% fetal bovine serum and 2 mM glutamine, and grown in a 37° C. incubator with 5% CO2. BNP1350 synthesized from camptothecin natural product (purchased from APAC) and BNP1350 synthesized via the Total Synthesis Scheme at BioNumerik Pharmaceuticals, Inc. were dissolved in DMSO for use in cytotoxicity experiments where inhibition of cell growth was measured using the SRB assay. Briefly, cells were seeded (450 cells/well in 100 μL volume) in a 96-well microtiter plates and allowed to attach for 24 hours prior to treatment with either natural product BNP1350 or total synthesis BNP1350 for 2 hours. Following this 2 hour treatment, BNP1350 was removed, the cells were washed with drug-free media (200 μL), and then drug-free media (200 μL) was added to the cells which were allowed to continue growing at 37° C. with 5% CO2 before the SRB assay was performed (total experimental time from the time of initial seeding was 5 days, during which 5 cell doublings occurred).

[4] = tested on: doxorubicin resistant human ovarian cancer cells (A2780/DX5); experiment: SRB cytotoxicity assay, inhibition of cell growth, A2780/DX5; assay type: cell-based; details: for IC50: A2780/DX5, 2 hour treatment, SRB assay at 5 days; for Resistance Factor Ratio A2780/DX5 IC50/A2780WT IC50: ratio of average IC50 values
Procedure: as §1

[5] = sodium hydroxide formulation, hydrolysed E-ring; cited from earlier work

## CCc1c2c(nc3ccc(OC(=O)N4CCC(N5CCCCC5)CC4)cc13)-c1cc3c(c(=O)n1C2)COC(=O)[C@]3(O)CC [Irinotecan, 7-ethyl-10-[4-(1-piperidino)-1-piperidino]carbonyloxy camptothecin]
[1]
  neovascularization: significant reduction

## CC[C@@]1(O)C(=O)OCc2c1cc1n(c2=O)Cc2c-1nc1ccccc1c2CC[Si](C)(C)C [Total Synthesis BNP1350, (4S)-4-ethyl-4-hydroxy-11-[2-(trimethylsilyl)ethyl]-1H-pyrano[3′:4′:6,7]indolizino[1,2-b]quinoline-3,14(4H,12H)-dione]
[2]
  antitumor potency compared with Topotecan or SN-38: significantly more potent
[3]; Test 1, listed as Natural Product BNP1350, read-out: IC50 (nM) A2780/WT, Test 1
  IC50: 6.7 nM
[3]; Test 1, read-out: IC50 (nM) A2780/WT, Test 1
  IC50: 6 nM
[3]; Test 2, listed as Natural Product BNP1350, read-out: IC50 (nM) A2780/WT, Test 2
  IC50: 5.4 nM
[3]; Test 2, read-out: IC50 (nM) A2780/WT, Test 2
  IC50: 6.8 nM
[3]; average of Test 1 and Test 2, listed as Natural Product BNP1350, read-out: IC50 (nM) A2780/WT, Average
  IC50: 6.1 nM
[3]; average of Test 1 and Test 2, read-out: IC50 (nM) A2780/WT, Average
  IC50: 6.4 nM
[4]; Test 1, listed as Natural Product BNP1350, read-out: IC50 (nM) A2780/DX5, Test 1
  IC50: 8.9 nM
[4]; Test 1, read-out: IC50 (nM) A2780/DX5, Test 1
  IC50: 11.9 nM
[4]; Test 2, listed as Natural Product BNP1350, read-out: IC50 (nM) A2780/DX5, Test 2
  IC50: 11.6 nM
[4]; Test 2, read-out: IC50 (nM) A2780/DX5, Test 2
  IC50: 11.7 nM
[4]; average of Test 1 and Test 2, listed as Natural Product BNP1350, read-out: IC50 (nM) A2780/DX5, Average
  IC50: 10.3 nM
[4]; average of Test 1 and Test 2, read-out: IC50 (nM) A2780/DX5, Average
  IC50: 11.8 nM
[4]
  Resistance Factor Ratio A2780/DX5 IC50/A2780WT IC50: 1.8
[4]; listed as Natural Product BNP1350
  Resistance Factor Ratio A2780/DX5 IC50/A2780WT IC50: 1.7

## CC[C@@](O)(C(=O)O)c1cc2n(c(=O)c1CO)Cc1cc3ccccc3nc1-2 [carboxylate form of CPT]
[5]
  anti-tumor potency relative to non-hydrolyzed lactone form of CPT: one-tenth or less
